Source: ChEMBL document CHEMBL1201862, “PubChem BioAssay data set” (2004)
The source made the active and inactive calls.

Legend:
[1] = biological target: Voltage-gated inwardly rectifying potassium channel KCNH2 (Homo sapiens, UniProt Q12809); conditions: Potency;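 also: confirmatory quantitative high-throughput screen measuring inhibition of hERG channel activity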
CAAX prenyl protease 2 = CAAX prenyl protease 2 (Homo sapiens, UniProt Q9Y256); test: human Rce1 protease inhibitors, dose response, biochemical, yeast membranes, quenched-peptide fluorescence, cherry-pick (AID 588849)
Sequence of CAAX prenyl protease 2 (Q9Y256 whole entry): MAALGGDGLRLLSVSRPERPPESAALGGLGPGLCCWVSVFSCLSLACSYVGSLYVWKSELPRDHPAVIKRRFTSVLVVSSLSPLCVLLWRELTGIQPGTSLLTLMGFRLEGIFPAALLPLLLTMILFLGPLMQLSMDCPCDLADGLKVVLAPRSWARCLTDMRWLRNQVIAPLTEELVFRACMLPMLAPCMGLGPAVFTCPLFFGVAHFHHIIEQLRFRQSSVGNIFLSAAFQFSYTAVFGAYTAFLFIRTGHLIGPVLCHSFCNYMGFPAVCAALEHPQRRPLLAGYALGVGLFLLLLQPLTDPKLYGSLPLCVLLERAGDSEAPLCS

CAAX prenyl protease 1 = CAAX prenyl protease 1 (Saccharomyces cerevisiae S288c, UniProt P47154); test: Ste24 protease inhibitors, dose response, biochemical, S. cerevisiae, plate reader, cherry-pick (AID 488815)
Sequence of CAAX prenyl protease 1 (P47154 whole entry): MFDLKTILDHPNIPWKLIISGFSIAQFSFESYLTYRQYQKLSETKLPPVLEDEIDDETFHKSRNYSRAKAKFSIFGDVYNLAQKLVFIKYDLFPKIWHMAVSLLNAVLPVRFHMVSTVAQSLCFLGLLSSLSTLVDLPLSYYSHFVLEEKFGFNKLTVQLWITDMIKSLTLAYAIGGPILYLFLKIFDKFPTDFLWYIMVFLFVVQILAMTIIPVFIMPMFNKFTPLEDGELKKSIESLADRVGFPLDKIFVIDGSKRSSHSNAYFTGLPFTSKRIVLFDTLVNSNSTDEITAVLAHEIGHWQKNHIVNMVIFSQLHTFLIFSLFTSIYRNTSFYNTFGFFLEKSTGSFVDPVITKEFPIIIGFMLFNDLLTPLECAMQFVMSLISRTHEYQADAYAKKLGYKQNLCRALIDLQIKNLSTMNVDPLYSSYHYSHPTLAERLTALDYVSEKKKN

[2] = biological target: G-protein coupled receptor 35 (Homo sapiens, UniProt Q9HC97); test: GPR35 antagonists blocking zaprinast-driven arrestin recruitment, primary screen, imaging, U2OS, beta-arrestin-GFP, zaprinast agonist (AID 2058); type: functional;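 also: antagonist potency meaning inhibition of agonist-induced arrestin redistribution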
Sequence of G-protein coupled receptor 35 (Q9HC97 whole entry): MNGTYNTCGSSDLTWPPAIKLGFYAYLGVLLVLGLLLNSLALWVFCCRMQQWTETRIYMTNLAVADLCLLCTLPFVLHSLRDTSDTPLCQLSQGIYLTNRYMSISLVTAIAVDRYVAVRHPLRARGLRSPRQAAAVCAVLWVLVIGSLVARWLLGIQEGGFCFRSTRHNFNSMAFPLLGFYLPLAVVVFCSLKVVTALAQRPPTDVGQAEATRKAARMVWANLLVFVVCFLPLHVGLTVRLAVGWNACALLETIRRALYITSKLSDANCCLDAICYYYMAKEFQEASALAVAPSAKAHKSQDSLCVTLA

[3] = biological target: Cyclin-dependent kinase 5/CDK5 activator 1 (Homo sapiens, UniProt Q00535); test: CDK5/p35 kinase inhibitors, dose response, biochemical, cherry-picked samples, set 2 (AID 504545)
Sequence of Cyclin-dependent kinase 5/CDK5 activator 1 (Q00535 whole entry): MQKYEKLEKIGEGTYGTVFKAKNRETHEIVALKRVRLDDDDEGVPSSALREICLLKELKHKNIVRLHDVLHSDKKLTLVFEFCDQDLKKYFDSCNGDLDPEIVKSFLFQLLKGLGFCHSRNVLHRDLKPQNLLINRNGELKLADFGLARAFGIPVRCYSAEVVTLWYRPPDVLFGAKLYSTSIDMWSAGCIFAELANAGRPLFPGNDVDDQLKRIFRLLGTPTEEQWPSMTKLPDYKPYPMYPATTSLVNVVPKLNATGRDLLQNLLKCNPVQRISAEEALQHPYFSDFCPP
Sequence of Cyclin-dependent kinase 5/CDK5 activator 1 (Q15078 whole entry, further chain): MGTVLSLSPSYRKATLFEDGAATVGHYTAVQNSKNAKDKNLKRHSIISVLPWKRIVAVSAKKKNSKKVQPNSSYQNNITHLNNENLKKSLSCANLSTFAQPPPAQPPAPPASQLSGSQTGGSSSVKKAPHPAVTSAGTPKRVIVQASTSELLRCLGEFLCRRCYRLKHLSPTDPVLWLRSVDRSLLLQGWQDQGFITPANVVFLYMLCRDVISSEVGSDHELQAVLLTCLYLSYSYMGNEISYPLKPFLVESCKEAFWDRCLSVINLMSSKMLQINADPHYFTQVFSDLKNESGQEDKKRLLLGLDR

Phospholipase A2 = Phospholipase A2 (Homo sapiens, UniProt P04054); type: functional;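 also: confirmatory dose-response counterscreen on phospholipase A2, testing hits that came from an ultra-high-throughput screen for ATG4B inhibitors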
Sequence of Phospholipase A2 (P04054 whole entry): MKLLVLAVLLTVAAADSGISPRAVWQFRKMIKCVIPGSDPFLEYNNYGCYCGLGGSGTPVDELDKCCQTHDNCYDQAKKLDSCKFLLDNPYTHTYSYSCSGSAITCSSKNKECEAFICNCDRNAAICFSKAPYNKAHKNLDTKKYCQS

[4] = C. albicans growth with fluconazole, confirmation, fluorescence, retest (AID 2467); type: functional, cell-based
BJ [5] = test: cells; type: functional, cell-based; conditions: Homo sapiens
Beta-arrestin-1 = Beta-arrestin-1 (Homo sapiens, UniProt P49407); test: inhibitors of arrestin peptide binding to AP2, dose response, biochemical, cherry pick 1, beta2-adaptin appendage, flow cytometry (AID 588783); type: functional
Sequence of Beta-arrestin-1 (P49407 whole entry): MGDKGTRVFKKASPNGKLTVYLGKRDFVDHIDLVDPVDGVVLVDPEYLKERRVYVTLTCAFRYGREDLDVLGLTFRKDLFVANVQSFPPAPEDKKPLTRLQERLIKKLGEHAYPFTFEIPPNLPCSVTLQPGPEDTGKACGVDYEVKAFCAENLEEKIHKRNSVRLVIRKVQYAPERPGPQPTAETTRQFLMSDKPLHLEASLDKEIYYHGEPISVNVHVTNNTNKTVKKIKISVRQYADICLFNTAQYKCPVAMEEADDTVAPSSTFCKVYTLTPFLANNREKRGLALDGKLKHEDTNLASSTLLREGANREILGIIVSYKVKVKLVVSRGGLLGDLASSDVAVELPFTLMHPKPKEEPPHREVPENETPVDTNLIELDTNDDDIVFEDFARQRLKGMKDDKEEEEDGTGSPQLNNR

BJ [6] = test: cytotoxicity toward Ras-transformed BJeLR fibroblasts, dose response, cell-based, alamar blue fluorescence, cherrypicked samples (AID 2631); type: functional; conditions: Homo sapiens;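 also: confirmatory dose-response assay in RAS-dependent BJ fibroblasts engineered with TERT, LT and ST, with cytotoxicity read by fluorescence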
[7] = biological target: T1, Serine/threonine-protein phosphatase (Candida dubliniensis (strain CD36 / CBS 7987 / NCPF 3949 / NRRLY-17841) (Yeast), UniProt B9W6M3); test: calcineurin pathway inhibitors in yeast reporter, dose response, S. cerevisiae, CDRE-lacZ, luminescence, secondary (AID 2388); type: functional, cell-based;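 also: yeast reporter cells carrying a calcineurin-responsive lacZ construct stimulated with calcium chloride; luminescent beta-galactosidase reporter signal in whole cells rather than isolated phosphatase activity; potency for inhibition where a drop in reporter signal means calcineurin blockade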
T1 sequence (B9W6M3 whole entry): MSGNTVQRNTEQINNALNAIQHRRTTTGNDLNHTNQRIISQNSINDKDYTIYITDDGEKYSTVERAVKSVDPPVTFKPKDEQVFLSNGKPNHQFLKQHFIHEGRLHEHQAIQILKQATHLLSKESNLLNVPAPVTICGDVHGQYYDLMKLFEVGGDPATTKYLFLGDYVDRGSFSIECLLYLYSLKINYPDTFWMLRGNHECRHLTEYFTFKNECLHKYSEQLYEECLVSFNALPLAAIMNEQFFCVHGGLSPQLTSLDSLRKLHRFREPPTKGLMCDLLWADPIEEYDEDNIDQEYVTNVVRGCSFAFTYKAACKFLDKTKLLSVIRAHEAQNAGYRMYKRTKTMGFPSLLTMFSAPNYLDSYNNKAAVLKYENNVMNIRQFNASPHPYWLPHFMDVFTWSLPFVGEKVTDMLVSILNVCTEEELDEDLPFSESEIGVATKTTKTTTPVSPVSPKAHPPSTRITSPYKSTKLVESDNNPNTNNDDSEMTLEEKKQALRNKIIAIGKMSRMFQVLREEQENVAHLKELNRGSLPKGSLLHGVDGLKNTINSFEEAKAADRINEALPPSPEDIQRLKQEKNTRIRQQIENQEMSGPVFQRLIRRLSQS

[8] = inhibitors of firefly luciferase expression or activity, dose response, H4 neuroglioma cells, luminescence (AID 1990); type: functional, cell-based
Nonstructural protein 1 = Nonstructural protein 1 (Influenza A virus, UniProt Q194T2); type: functional, Influenza A virus (A/California/07/2009(H1N1))
Sequence of Nonstructural protein 1 (Q194T2 whole entry): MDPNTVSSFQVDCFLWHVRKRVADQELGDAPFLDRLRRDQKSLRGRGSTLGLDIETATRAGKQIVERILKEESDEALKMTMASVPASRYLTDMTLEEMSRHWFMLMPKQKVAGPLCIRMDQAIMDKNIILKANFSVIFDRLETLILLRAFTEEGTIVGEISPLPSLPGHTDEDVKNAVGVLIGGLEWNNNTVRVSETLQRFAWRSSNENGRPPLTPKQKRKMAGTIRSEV

[9] = cytotoxicity in HEK-293T cells, dose response, cytotoxicity control for TCR NF-kB inhibitor project, luminescence, T-cell screen hits (AID 489026); type: functional, cell-based;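 also: cells exposed to compound about 14 hours before the viability readout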
BJ [10] = test: cytotoxicity toward BJ-TERT-LT-ST fibroblasts, dose response, cell-based, RAS-independent, luminescence (AID 1935); type: functional; conditions: Homo sapiens;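 also: BJ fibroblasts immortalized with TERT plus LT and ST oncogenes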
[11] = Luminescence Cell-Based Dose Response HTS to Identify Inhibitors of 5'UTR Stem-Loop Driven Prion Protein mRNA Translation in H4 Neuroglioblastoma Cells. [Related pubchem assays: 1827 (Project Summary), 1813 (Primary HTS)]; type: functional
[12] = biological target: T2, Apoptotic protease-activating factor 1 (Homo sapiens, UniProt O14727); type: functional
T2 sequence (O14727 whole entry): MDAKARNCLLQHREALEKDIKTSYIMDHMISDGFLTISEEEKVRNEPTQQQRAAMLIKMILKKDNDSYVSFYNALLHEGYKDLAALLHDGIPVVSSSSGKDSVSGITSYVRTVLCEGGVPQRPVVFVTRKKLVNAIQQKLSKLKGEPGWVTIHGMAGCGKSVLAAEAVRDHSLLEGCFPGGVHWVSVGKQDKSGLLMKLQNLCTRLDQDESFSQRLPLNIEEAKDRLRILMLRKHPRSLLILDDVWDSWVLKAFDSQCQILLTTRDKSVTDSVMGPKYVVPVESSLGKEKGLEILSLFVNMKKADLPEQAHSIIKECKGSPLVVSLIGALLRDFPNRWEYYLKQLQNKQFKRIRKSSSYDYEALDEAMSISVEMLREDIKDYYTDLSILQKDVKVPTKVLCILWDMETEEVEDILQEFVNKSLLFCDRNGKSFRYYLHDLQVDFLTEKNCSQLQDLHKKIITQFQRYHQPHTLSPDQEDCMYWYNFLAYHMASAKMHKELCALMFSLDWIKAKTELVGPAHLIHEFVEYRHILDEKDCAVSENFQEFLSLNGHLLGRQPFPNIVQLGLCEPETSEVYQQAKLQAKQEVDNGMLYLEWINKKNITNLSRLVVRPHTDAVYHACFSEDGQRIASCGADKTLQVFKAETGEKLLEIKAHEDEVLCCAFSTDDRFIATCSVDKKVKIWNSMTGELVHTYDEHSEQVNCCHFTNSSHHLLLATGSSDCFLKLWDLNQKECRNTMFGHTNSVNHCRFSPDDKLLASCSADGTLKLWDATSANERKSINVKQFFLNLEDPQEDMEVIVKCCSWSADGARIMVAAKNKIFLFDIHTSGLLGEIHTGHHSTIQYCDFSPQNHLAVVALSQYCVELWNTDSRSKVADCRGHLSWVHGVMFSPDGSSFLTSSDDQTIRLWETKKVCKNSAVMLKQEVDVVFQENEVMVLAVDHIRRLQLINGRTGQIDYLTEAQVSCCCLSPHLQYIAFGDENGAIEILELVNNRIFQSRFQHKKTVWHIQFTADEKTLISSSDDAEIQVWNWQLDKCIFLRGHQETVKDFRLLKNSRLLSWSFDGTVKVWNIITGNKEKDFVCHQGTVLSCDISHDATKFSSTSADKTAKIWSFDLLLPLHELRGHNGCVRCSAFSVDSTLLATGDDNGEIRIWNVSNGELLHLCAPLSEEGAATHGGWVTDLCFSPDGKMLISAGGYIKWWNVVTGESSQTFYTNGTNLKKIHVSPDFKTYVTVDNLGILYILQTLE

[13] = NIH-3T3 fibroblast cytotoxicity, dose response, cytotoxicity control, cell-based, fluorescence, Alamar Blue, secondary assay (AID 2327); type: functional;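 also: NIH-3T3 mouse fibroblasts cultured with fluconazole at 8 µg/mL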
Streptococcus = test: Group A Streptococcus viability loss, dose response, counter-screen for streptokinase expression inhibitor project, luminescence, BacTiterGlo (AID 1915); type: functional, organism-based;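 also: potency for reduction of bacterial viability or growth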
[14] = cytotoxicity toward DRD oncogenic fibroblasts, dose response, cell-based, non-viral oncogenic, luminescence (AID 1934); type: functional; conditions: Homo sapiens
[15] = tested on: Streptococcus sp. 'group A'; test: growth inhibition of control SK(-) GAS strain, dose response, counter-screen for streptokinase expression inhibitor project, luminescence, kanamycin, BacTiterGlo, confirmation (AID 1900); type: functional, organism-based
BJ [16] = test: cytotoxicity toward BJ-TERT fibroblasts, dose response, cell-based, RAS-independent, luminescence (AID 1933); type: functional; conditions: Homo sapiens
[17] = biological target: ATP-dependent molecular chaperone HSP82 (Candida albicans (strain WO-1) (Yeast), UniProt C4YTQ8); test: loss of DOC-induced GRE-beta-galactosidase reporter signal, dose response, Hsp90 inhibitor project, S. cerevisiae, luminescence (AID 2400); type: functional, cell-based;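 also: beta-galactosidase luminescence from glucocorticoid response element reporter as proxy for Hsp90 function; inhibitor potency where signal loss means Hsp90 inhibition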
Sequence of ATP-dependent molecular chaperone HSP82 (C4YTQ8 whole entry): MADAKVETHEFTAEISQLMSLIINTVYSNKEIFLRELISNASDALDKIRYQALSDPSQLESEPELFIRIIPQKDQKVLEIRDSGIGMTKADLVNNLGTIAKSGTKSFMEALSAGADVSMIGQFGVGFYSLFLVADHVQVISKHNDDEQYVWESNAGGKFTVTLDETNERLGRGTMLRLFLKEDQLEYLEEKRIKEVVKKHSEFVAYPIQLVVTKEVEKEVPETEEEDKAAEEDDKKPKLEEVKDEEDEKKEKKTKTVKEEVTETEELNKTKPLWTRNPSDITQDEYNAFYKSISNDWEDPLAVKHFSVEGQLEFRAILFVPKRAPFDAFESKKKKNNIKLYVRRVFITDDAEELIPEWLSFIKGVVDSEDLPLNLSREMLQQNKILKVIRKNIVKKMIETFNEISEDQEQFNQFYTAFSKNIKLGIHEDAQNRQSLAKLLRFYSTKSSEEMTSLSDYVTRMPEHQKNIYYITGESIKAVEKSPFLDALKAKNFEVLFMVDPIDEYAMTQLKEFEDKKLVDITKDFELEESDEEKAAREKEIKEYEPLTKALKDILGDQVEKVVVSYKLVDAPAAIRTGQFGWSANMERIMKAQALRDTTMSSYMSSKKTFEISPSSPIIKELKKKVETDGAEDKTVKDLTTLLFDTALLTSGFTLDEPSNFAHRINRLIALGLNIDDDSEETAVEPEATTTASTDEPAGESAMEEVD

Cysteine protease ATG4B = biological target: T3, Cysteine protease ATG4B (Homo sapiens, UniProt Q9Y4P1); type: functional;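 also: Fluorescence-based dose-response confirmation assay measuring inhibition of ATG4B activity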
T3 sequence (Q9Y4P1 whole entry): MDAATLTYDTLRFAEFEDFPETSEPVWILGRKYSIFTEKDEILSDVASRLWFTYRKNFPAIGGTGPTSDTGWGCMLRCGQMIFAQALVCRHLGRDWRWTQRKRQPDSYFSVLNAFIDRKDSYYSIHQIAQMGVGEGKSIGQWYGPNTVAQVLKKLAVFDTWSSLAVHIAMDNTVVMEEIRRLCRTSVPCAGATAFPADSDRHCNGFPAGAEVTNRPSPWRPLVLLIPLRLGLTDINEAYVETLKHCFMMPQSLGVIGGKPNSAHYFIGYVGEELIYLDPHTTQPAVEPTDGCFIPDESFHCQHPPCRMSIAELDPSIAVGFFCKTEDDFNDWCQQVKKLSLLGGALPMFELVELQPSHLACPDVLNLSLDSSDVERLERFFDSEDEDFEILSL

HeLa = test: HeLa cell cytotoxicity, dose response, cytotoxicity control for MITF activator project, CellTiter-Glo luminescence, cherry-pick samples (AID 540259); type: functional, cell-based; conditions: Homo sapiens
[18] = microbe, parasite or virus in culture; type: functional; conditions: Mycobacterium tuberculosis
[19] = Vero E6 cell cytotoxicity, dose response, cytotoxicity control for non-replicating M. tuberculosis project, secondary assay (AID 492998); type: functional, VeroE6; conditions: Vero C1008
[20] = growth suppression of PTEN-null colon cells, dose response, cell-based, HCT116 PTEN knockout (AID 1047); type: functional;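 also: HCT116 colon tumor cells with PTEN knocked out; cells exposed to compound for 60 hours before readout; potency for loss of cell viability measured by luminescence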
[21] = THP-1 cell cytotoxicity, dose response, cytotoxicity control for non-replicating M. tuberculosis project (AID 489025); type: functional
[22] = biological target: T4, DNA repair protein RAD52 homolog (Homo sapiens, UniProt P43351); type: functional, biochemical
T4 sequence (P43351 whole entry): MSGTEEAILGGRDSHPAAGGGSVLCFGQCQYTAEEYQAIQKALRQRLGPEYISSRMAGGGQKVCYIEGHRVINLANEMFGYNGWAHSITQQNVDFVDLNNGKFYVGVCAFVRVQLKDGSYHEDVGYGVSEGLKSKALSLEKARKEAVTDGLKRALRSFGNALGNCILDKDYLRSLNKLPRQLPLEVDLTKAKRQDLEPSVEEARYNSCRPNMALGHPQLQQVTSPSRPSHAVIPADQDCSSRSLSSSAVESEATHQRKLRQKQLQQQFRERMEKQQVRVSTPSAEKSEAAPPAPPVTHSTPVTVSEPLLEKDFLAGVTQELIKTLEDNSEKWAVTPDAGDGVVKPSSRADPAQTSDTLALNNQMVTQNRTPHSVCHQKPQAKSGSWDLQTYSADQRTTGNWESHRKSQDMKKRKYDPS

cells = type: functional
A-375 = test: A375 melanoma cell viability reduction, dose response, counter-screen for MITF modulator project, cherry-pick samples, set 2 (AID 540335); type: functional, cell-based; conditions: Homo sapiens
[23] = biological target: T5, Microphthalmia-associated transcription factor (Homo sapiens, UniProt O75030); test: TRPM1 promoter luciferase signal decrease, dose response, MITF inhibitor project, cell-based, SK-MEL-5, cherry-picked, set 3 (AID 493073); type: functional
T5 sequence (O75030 whole entry): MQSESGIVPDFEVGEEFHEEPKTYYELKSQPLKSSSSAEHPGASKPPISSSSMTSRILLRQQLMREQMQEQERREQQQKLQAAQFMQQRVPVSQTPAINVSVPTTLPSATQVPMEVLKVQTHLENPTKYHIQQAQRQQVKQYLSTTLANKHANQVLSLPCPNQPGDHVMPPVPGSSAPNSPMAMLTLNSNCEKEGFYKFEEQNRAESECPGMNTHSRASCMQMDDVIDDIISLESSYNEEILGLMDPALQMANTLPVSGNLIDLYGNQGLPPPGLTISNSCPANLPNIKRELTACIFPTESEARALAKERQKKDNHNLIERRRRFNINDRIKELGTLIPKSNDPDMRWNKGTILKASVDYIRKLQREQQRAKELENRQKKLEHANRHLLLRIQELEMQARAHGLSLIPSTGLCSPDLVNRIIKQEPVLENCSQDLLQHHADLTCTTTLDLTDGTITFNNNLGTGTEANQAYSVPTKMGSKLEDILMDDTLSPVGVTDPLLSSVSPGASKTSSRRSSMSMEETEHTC

[24] = Luminescence Cell-Based Dose Retest to Confirm Inhibitors of Cancer Stem Cells. [Related pubchem assays (depositor defined):AID2717, AID2721]; type: functional, Homo sapiens; conditions: Homo sapiens
[25] = growth suppression of beta-catenin-knockout colon cells, dose response, cell-based, HCT116, human colon tumor (AID 1045); type: functional;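 also: HCT116 colon tumor cells with beta catenin knocked out; cells exposed to compound for 60 hours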
[26] = HepG2 cell cytotoxicity, dose response, cytotoxicity control for non-replicating M. tuberculosis project (AID 489018); type: functional; conditions: Mycobacterium tuberculosis

Sequence of Voltage-gated inwardly rectifying potassium channel KCNH2 (Q12809 whole entry): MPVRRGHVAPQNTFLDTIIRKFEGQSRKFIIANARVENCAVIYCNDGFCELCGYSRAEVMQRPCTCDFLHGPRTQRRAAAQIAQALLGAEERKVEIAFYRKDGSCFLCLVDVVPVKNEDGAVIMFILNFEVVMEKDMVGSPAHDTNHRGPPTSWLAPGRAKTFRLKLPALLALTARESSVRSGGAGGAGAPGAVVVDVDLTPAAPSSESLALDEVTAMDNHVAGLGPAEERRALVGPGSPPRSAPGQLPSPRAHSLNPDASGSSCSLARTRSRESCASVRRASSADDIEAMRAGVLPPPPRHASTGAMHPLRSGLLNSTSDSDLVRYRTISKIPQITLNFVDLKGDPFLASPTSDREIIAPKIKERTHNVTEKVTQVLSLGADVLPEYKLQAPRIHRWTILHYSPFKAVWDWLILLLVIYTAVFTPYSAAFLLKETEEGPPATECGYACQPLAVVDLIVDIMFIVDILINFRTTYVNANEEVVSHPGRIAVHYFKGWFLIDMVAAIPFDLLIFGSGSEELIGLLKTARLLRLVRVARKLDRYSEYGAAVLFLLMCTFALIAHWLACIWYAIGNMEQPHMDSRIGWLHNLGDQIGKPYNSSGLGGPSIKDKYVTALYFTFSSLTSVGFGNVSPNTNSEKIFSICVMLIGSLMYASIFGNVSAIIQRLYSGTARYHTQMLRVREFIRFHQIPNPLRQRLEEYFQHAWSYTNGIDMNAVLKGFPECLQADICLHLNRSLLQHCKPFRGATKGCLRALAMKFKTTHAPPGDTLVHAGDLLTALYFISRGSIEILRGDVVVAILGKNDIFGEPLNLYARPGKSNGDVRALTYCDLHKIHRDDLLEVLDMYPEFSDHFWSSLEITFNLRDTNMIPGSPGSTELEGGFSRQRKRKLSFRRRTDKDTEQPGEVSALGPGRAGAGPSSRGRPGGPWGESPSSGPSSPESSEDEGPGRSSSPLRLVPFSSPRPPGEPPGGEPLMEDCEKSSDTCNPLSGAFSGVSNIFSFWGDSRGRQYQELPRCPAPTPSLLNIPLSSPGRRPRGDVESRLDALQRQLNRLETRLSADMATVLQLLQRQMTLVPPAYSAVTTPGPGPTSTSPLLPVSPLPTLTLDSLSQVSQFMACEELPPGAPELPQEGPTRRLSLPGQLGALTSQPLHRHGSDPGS

Brc1cc(Br)c(Oc2cc(Br)c(Br)cc2Br)cc1Br
AC50 [1]: 17.8 µM (inconclusive)

CC1CCCC(/C=N/c2ccccc2C(=O)O)=C1O (configuration not stated)
AC50 (CAAX prenyl protease 2): 11.6 µM (active)
AC50 (CAAX prenyl protease 1): 4.3 µM (active)

CCN1/C(=C/C(C)=C/c2sc3ccccc3[n+]2CC)Sc2ccccc21
IC50 [2]: 1.01 µM (active)
AC50 [3]: 41.1 µM (active)
IC50 (Phospholipase A2): 7.86 µM (active)
EC50 [4]: 0.051 µM (active)
EC50 (BJ [5]): 6.01 µM (active)
IC50 (Beta-arrestin-1): 2.2 µM (active)
EC50 (BJ [6]): 1.74 µM (active)
EC50 [7]: > 180 µM (inactive)
EC50 [8]: < 0.1 µM (active)
IC50 (Nonstructural protein 1): 5.7 µM (active)
IC50 [9]: 64.4 µM (inactive)
EC50 (BJ [10]): 5.48 µM (inconclusive)
EC50 [11]: 1.68 µM (active)
IC50 [12]: 19.4 µM (active)
EC50 [13]: 77.7 µM (active)
EC50 (Streptococcus): 2.74 µM (active)
EC50 [14]: 6.17 µM (active)
EC50 [15]: 2.15 µM (active)
EC50 (BJ [16]): 4.56 µM (active)
EC50 [17]: 18.3 µM (active)
IC50 (Cysteine protease ATG4B): 8.62 µM (active)

COC(=O)c1ccc(/C=N/Nc2nc(C)c(C)s2)cc1
AC50 (HeLa): 69.8 µM (active)

CCN(Cc1ccccc1)c1ccc(/C=N/N=C(N)N)cc1
CC50 [18]: 9.2 µM (active)
CC50 [19]: 8.36 µM (active)
EC50 [20]: 3.27 µM (active)
CC50 [21]: 7.49 µM (active)
IC50 (Nonstructural protein 1): 39.3 µM (active)
AC50 [22]: 6.26 µM (active)
IC50 (cells): 10.9 µM (active)
AC50 (A-375): 18.4 µM (active)
AC50 [23]: 6.37 µM (active)
AC50 [24]: 2.61 µM (active)
EC50 [25]: 3.35 µM (active)
CC50 [26]: 7.93 µM (active)
